Experimental findings from US20240067631A1, “PYRAZOLE DERIVATIVES USEFUL AS NAMPT MODULATORS” (Cytokinetics, Inc., priority 2020, published 2024) are described below.

This experiment concerns the target human NAMPT (Homo sapiens (Human), UniProt P43490). As to the kind of experiment: Human recombinant enzyme assay (NMN fluorescence biochemical assay). The following applies: 6 nM human NAMPT, 60 min; for AC1.4 Human: concentration of compound that generates 40% higher activity over basal; for EC50: concentration that gives half-maximal activation. How it is done: Compounds described herein were assayed for their ability to stimulate the synthesis of nicotinamide mononucleotide (NMN) by the enzyme NAMPT. The human recombinant enzyme assay measures the activation of the enzyme activity by compounds using recombinant enzyme and substrates in a buffered cell-free system. The assay conditions closely mimic cellular environments. Dose responses were measured using an assay to detect the formation of nicotinamide mono-nucleotide. All experiments were performed in the 384-well format. Generally, 0.5 μL of DMSO containing varying concentrations of the test compound was mixed with 10 μL of the enzyme reagent solution. Enzyme reactions were initiated with the addition of 10 μL of a solution containing the substrates. The final assay conditions were as follows: 6 nM human NAMPT, 2.5 mM ATP, […] in 50 mM HEPES, pH 7.2, 1 mM DTT, 1 mM CHAPS 50 mM NaCl, 100 mM MgCl2. Following an incubation of 60 min at ambient temperature, 10 μL of 20% acetophenone in DMSO was added, followed by 10 μL of 2 M KOH and 40 μL of formic acid. The plates were read for fluorescence (Excitation/Emission=355 nm/460 nm) using an EnVision plate reader after 40 mins of incubation at ambient temperature. The potency measurements for compounds, are quantified and represented as AC1.4 (the concentration of compounds that generates 40% higher activity over basal) and EC50 (concentration of the compound that gives half-maximal activation).

Chain of human NAMPT (P43490 whole entry): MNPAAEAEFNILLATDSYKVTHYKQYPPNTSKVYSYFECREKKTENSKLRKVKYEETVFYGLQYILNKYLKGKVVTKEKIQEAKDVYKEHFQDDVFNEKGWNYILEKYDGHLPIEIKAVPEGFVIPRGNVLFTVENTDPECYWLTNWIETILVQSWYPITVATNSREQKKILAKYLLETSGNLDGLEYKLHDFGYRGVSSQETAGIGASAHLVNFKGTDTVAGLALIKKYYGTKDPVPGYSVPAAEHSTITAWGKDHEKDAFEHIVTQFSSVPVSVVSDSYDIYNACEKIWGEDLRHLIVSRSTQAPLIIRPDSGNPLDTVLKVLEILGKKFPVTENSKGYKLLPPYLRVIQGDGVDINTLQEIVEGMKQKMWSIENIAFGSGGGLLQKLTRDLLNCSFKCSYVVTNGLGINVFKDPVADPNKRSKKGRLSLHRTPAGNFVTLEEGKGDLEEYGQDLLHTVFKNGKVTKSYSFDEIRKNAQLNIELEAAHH

Broadly, the EC50 is the concentration that produces a half-maximal response. As for `Cc1nc(C(=O)N[C@@H](C)c2ccncc2)nc(NCCc2cn[nH]c2)c1C` [Compound 87, (S)-4-((2-(1H-pyrazol-4-yl)ethyl)amino)-5,6-dimethyl-N-(1-(pyridin-4-yl)ethyl)pyrimidine-2-carboxamide], the “AC1.4 Human” value worked out at 1.1375 µM and the 50% effective concentration (EC50) amounted to 13.3 µM.

`Cc1nc(C(=O)NC(C)c2ccncc2F)nc(NCCc2cn[nH]c2)c1C` (centres unmarked) [Compound 110, 4-((2-(1H-pyrazol-4-yl)ethyl)amino)-N-(1-(3-fluoropyridin-4-yl)ethyl)-5,6-dimethylpyrimidine-2-carboxamide]: the “AC1.4 Human” value turned out to be 1.9815 µM and the concentration for a half-maximal effect (EC50) stood at 16.2 µM. `Cc1nc(C(=O)NCC2CN(C(=O)c3ccccc3)C2)nc(NCCc2cn[nH]c2)c1C` [Compound 57, 4-((2-(1H-pyrazol-4-yl)ethyl)amino)-N-((1-benzoylazetidin-3-yl)methyl)-5,6-dimethylpyrimidine-2-carboxamide]: the “AC1.4 Human” value came to 0.396 µM and the concentration giving a half-maximal response (EC50) came out at 2.88 µM. For `Cc1nc(C(=O)N2CCC(O)(c3ccccc3)CC2)nc(NCCc2cn[nH]c2)c1C` [Compound 34, (4-((2-(1H-pyrazol-4-yl)ethyl)amino)-5,6-dimethylpyrimidin-2-yl)(4-hydroxy-4-phenylpiperidin-1-yl)methanone], in that order: 2.839 µM and 17.7 µM. Turning to `Cc1nc(C(=O)N2CCC(F)(F)CC2c2ccccc2)nc(NCCc2cn[nH]c2)c1C` (centres unmarked) [Compound 28, (4-((2-(1H-pyrazol-4-yl)ethyl)amino)-5,6-dimethylpyrimidin-2-yl)(4,4-difluoro-2-phenylpiperidin-1-yl)methanone], the “AC1.4 Human” value was determined as 0.144 µM and the 50% effective concentration (EC50) was 1.36 µM. Take `Cc1nc(C(=O)N[C@H]2C[C@@H](c3ccccc3)C2)nc(NCCc2cn[nH]c2)c1C` [Compound 135, 4-((2-(1H-pyrazol-4-yl)ethyl)amino)-5,6-dimethyl-N-((1s,3s)-3-phenylcyclobutyl)pyrimidine-2-carboxamide]: the “AC1.4 Human” value is 3.7335 µM and the 50% effective concentration (EC50) worked out at 17.5 µM. For the compound `Cc1nc(C(=O)N2CCOCC2c2ccc(F)cc2)nc(NCCc2cn[nH]c2)c1C` (centres unmarked) [Compound 67, (4-((2-(1H-pyrazol-4-yl)ethyl)amino)-5,6-dimethylpyrimidin-2-yl)(3-(4-fluorophenyl)morpholino)methanone], the “AC1.4 Human” value was determined as 0.505 µM and the concentration for a half-maximal effect (EC50) came out at 3.86 µM. For the compound `Cc1nc(C(=O)N2CCC(c3c[nH]c4ccccc34)CC2)nc(NCCc2cn[nH]c2)c1C` [Compound 6, (4-(1H-indol-3-yl)piperidin-1-yl)(4-((2-(1H-pyrazol-4-yl)ethyl)amino)-5,6-dimethylpyrimidin-2-yl)methanone], the “AC1.4 Human” value was determined as 0.0385 µM and the EC50 was 1.84 µM. In the same order, the values of `COc1cccc(C(C)NC(=O)c2nc(C)c(C)c(NCCc3cn[nH]c3)n2)n1` (centres unmarked) [Compound 68, 4-((2-(1H-pyrazol-4-yl)ethyl)amino)-N-(1-(6-methoxypyridin-2-yl)ethyl)-5,6-dimethylpyrimidine-2-carboxamide] are 0.563 µM and 1.64 µM. For `Cc1nc(C(=O)NC2(c3ccccc3)COC2)nc(NCCc2cn[nH]c2)c1C` [Compound 114, 4-((2-(1H-pyrazol-4-yl)ethyl)amino)-5,6-dimethyl-N-(3-phenyloxetan-3-yl)pyrimidine-2-carboxamide], in that order: 2.1125 µM and 23.1 µM. Take `CNC(=O)c1nc(C)c(C)c(N(CCc2ccccc2)CCc2cn[nH]c2)n1` [Compound 2, 4-((2-(1H-pyrazol-4-yl)ethyl)(phenethyl)amino)-N,5,6-trimethylpyrimidine-2-carboxamide]: the “AC1.4 Human” value was 0.007 µM and the EC50 stood at 0.155 µM. With `Cc1nc(C(=O)Nc2cc(F)cc(F)c2)nc(NCCc2cn[nH]c2)c1C` [Compound 117, 4-((2-(1H-pyrazol-4-yl)ethyl)amino)-N-(3,5-difluorophenyl)-5,6-dimethylpyrimidine-2-carboxamide], the “AC1.4 Human” value is 2.2385 µM and the EC50 was determined as 47.6 µM. With `Cc1nc(C(=O)N[C@@H](C)c2ccccc2)nc(NCCc2cn[nH]c2)c1C` [Compound 59, (S)-4-((2-(1H-pyrazol-4-yl)ethyl)amino)-5,6-dimethyl-N-(1-phenylethyl)pyrimidine-2-carboxamide], the “AC1.4 Human” value was determined as 0.4045 µM and the EC50 stood at 3.08 µM.

With `Cc1nc(C(=O)NCc2coc3ccccc23)nc(NCCc2cn[nH]c2)c1C` [Compound 58, 4-((2-(1H-pyrazol-4-yl)ethyl)amino)-N-(benzofuran-3-ylmethyl)-5,6-dimethylpyrimidine-2-carboxamide], the “AC1.4 Human” value came out at 0.406 µM and the EC50 was found to be 0.788 µM. For `Cc1nc(C(=O)N2CC3(C2)C(=O)Nc2ccccc23)nc(NCCc2cn[nH]c2)c1C` [Compound 142, 1-(4-((2-(1H-pyrazol-4-yl)ethyl)amino)-5,6-dimethylpyrimidine-2-carbonyl)spiro[azetidine-3,3′-indolin]-2′-one], in that order: 4.3845 µM and 31.8 µM. In the case of `Cc1nc(C(=O)N[C@H](C)c2ccncc2)nc(NCCc2cn[nH]c2)c1C` [Compound 95, (R)-4-((2-(1H-pyrazol-4-yl)ethyl)amino)-5,6-dimethyl-N-(1-(pyridin-4-yl)ethyl)pyrimidine-2-carboxamide], the “AC1.4 Human” value stood at 1.2975 µM and the EC50 worked out at 11 µM. For `Cc1nc(C(=O)NC(c2cccnc2)C(F)(F)F)nc(NCCc2cn[nH]c2)c1C` (centres unmarked) [Compound 136, 4-((2-(1H-pyrazol-4-yl)ethyl)amino)-5,6-dimethyl-N-(2,2,2-trifluoro-1-(pyridin-3-yl)ethyl)pyrimidine-2-carboxamide], the “AC1.4 Human” value came out at 3.778 µM and the concentration giving a half-maximal response (EC50) was found to be 50.2 µM. On to `Cc1nc(C(=O)N2CCC[C@@H]2c2cccc(F)c2)nc(NCCc2cn[nH]c2)c1F` [Compound 150, (R)-(4-((2-(1H-pyrazol-4-yl)ethyl)amino)-5-fluoro-6-methylpyrimidin-2-yl)(2-(3-fluorophenyl)pyrrolidin-1-yl)methanone], for which the “AC1.4 Human” value is 0.12 µM. Regarding `Cc1nc(C(=O)N[C@@H](C)c2ccccn2)nc(NCCc2cn[nH]c2)c1C` [Compound 137, (S)-4-((2-(1H-pyrazol-4-yl)ethyl)amino)-5,6-dimethyl-N-(1-(pyridin-2-yl)ethyl)pyrimidine-2-carboxamide], the “AC1.4 Human” value was found to be 3.794 µM and the concentration giving a half-maximal response (EC50) turned out to be 34.5 µM.

With `Cc1nc(C(=O)NCC(F)(F)c2ccccc2)nc(NCCc2cn[nH]c2)c1C` [Compound 111, 4-((2-(1H-pyrazol-4-yl)ethyl)amino)-N-(2,2-difluoro-2-phenylethyl)-5,6-dimethylpyrimidine-2-carboxamide], the “AC1.4 Human” value stood at 1.9995 µM and the EC50 is 18.5 µM. For `Cc1nc(C(=O)N2CCCC2Cc2ccccc2)nc(NCCc2cn[nH]c2)c1C` (centres unmarked) [Compound 71, (4-((2-(1H-pyrazol-4-yl)ethyl)amino)-5,6-dimethylpyrimidin-2-yl)(2-benzylpyrrolidin-1-yl)methanone], the “AC1.4 Human” value came to 0.5835 µM and the EC50 was 6.07 µM.
